Measured values: patent publication US20250270617A1, “Compound - diagnostic marker for kidney cancer, method for detecting enzymatic activity, method for diagnosis of kidney cancer, kit comprising the compound, uses of the compound and method for the treatment of kidney cancer” (URTESTE S.A., priority 2022, published 2025)
Values joined by “and” are separate entries in the source; they are usually repeats but may differ in a detail not shown here. Identical values can stand only once. Numbered stars: 1 amine (or outer) side, 2 acyl side, 3 side chain; on linkers, the order of the positions; unused ones are H or OH. Square brackets hold non-standard residues; d marks the D form. Ends that are not written are not given here. Benzoyl(5-NH,2-NO2) = O=C(c1cc(N[*:1])ccc1[N+](=O)[O-])[*:2]; 2Abz = Nc1ccccc1C(=O)O

What was measured:
Format in all cases: biochemical, human
[1] = test system: proteolytic enzymes in urine; experiment: Dependence of substrate hydrolysis on reaction pH; settings: FIG. 4
Method: Furthermore, measurements concerning the dependence of the proteolytic activity of the representative compound according to the invention on the reaction pH were performed.

[2] = test system: proteolytic enzymes in urine from patients with different cancers; experiment: Selectivity of substrate cleavage in urine samples by cancer type; settings: testicular, prostate, pancreatic, biliary duct, lung, ovary, rectum cancer; mixture of 20 samples each; FIG. 3
Excerpt: Arabic numerals indicate the numbers of given cancer types. The samples tested for each type of cancer were derived from 20 different patients for each of the tested cancers. The results are mean values for given cancer types.
(§1) The activity of the novel compounds according to the invention was studied in a group of 20 subjects diagnosed with kidney cancer using the representative compound according to the invention. […] The remaining compounds according to the invention are characterized by the analogous mechanism of action. For this purpose, the representative compound according to the invention, ABZ^1-Leu^2-Pro^3-Gly^4-Thr^5-ANB^6—NH2, was dissolved in dimethyl sulfoxide (at a concentration of 0.5 mg/mL) and then 50 μL of the solution was mixed with 120 μL of a buffer (200 mM Tris-HCl, pH 8.0) and 80 μL of urine from a subject suffering from kidney cancer. The measurement was performed on a 96-well plate designed for measuring absorbance and each sample was analysed in triplicate at the temperature of 37° C. The duration of the measurement was 60 minutes. During the measurement, the wavelength characteristic for the chromophore (ANB-NH2) being released was monitored at the wavelength 405 nm (range 380-430 nm).
Furthermore, the dependence of the cleavage selectivity of the substrate, i.e. the compound according to the invention, on the cancer type being examined, was studied. […]

[3] = test system: proteolytic enzymes specific/characteristic of kidney cancer in urine; experiment: Absorbance measurement of substrate hydrolysis in individual urine samples (kidney cancer and healthy subjects)
[4] = test system: proteolytic enzymes in urine from a person diagnosed with kidney cancer; experiment: RP HPLC analysis of substrate cleavage in urine from a person with kidney cancer; settings: randomly selected urine from a person diagnosed with kidney cancer; FIG. 1
[5] = test system: proteolytic enzymes specific/characteristic of kidney cancer in urine; experiment: Absorbance measurement of substrate hydrolysis in individual urine samples (kidney cancer and healthy subjects); settings: for Results of absorbance analysis (rate of hydrolysis of the substrate): 405 nm, 37° C., 60 minutes, pH 8.0, triplicate
Method: as §1
The observed magnitude of increase in absorbance in time is different for each of the examined samples.
Such a result may be due to the difference in the activity as well as the amount of enzymes responsible for the enzymatic cleavage (proteolysis). […] The result indicates the absence of proteolytic enzymes specific/characteristic of kidney cancer.

- Dependence of the hydrolysis level of the substrate on pH [1]: maximum activity at alkaline pH
- Cleavage of the substrate in samples from patients with other cancers [2]: is not subject to cleavage
- Results of absorbance analysis (rate of hydrolysis of the substrate) ([3]; urine sample 35, healthy subject, 405 nm, 37° C., 60 minutes, pH 8.0, triplicate): 0.000000
- Cleavage of the substrate in urine samples from persons suffering from kidney cancer ([5]; all samples N1-N20): underwent cleavage
- Efficiency of substrate cleavage in samples N3 and N6 ([5]; compared with samples N5 or N20, FIG. 2, Table 1): less efficiently
- Results of absorbance analysis (rate of hydrolysis of the substrate) ([5]; urine sample 21, healthy subject): 0.000000
- Results of absorbance analysis (rate of hydrolysis of the substrate) ([5]; urine sample 22, healthy subject): 0.000000
- Results of absorbance analysis (rate of hydrolysis of the substrate) ([5]; urine sample 23, healthy subject): 0.000000
- Results of absorbance analysis (rate of hydrolysis of the substrate) ([5]; urine sample 24, healthy subject): 0.000000
- Results of absorbance analysis (rate of hydrolysis of the substrate) ([5]; urine sample 25, healthy subject): 0.000000
- Results of absorbance analysis (rate of hydrolysis of the substrate) ([5]; urine sample 26, healthy subject): 0.000000
- Results of absorbance analysis (rate of hydrolysis of the substrate) ([5]; urine sample 27, healthy subject): 0.000000
- Results of absorbance analysis (rate of hydrolysis of the substrate) ([5]; urine sample 28, healthy subject): 0.000000
- Results of absorbance analysis (rate of hydrolysis of the substrate) ([5]; urine sample 29, healthy subject): 0.000000
- Results of absorbance analysis (rate of hydrolysis of the substrate) ([5]; urine sample 30, healthy subject): 0.000000
- Results of absorbance analysis (rate of hydrolysis of the substrate) ([5]; urine sample 31, healthy subject): 0.000000
- Results of absorbance analysis (rate of hydrolysis of the substrate) ([5]; urine sample 32, healthy subject): 0.000000
- Results of absorbance analysis (rate of hydrolysis of the substrate) ([5]; urine sample 33, healthy subject): 0.000000
- Results of absorbance analysis (rate of hydrolysis of the substrate) ([5]; urine sample 34, healthy subject): 0.000000
- Results of absorbance analysis (rate of hydrolysis of the substrate) ([5]; urine sample 36, healthy subject): 0.000000
- Results of absorbance analysis (rate of hydrolysis of the substrate) ([5]; urine sample 37, healthy subject): 0.000000
- Results of absorbance analysis (rate of hydrolysis of the substrate) ([5]; urine sample 38, healthy subject): 0.000000
- Results of absorbance analysis (rate of hydrolysis of the substrate) ([5]; urine sample 39, healthy subject): 0.000000
- Results of absorbance analysis (rate of hydrolysis of the substrate) ([5]; urine sample 40, healthy subject): 0.000000
- Results of absorbance analysis (rate of hydrolysis of the substrate) ([5]; urine sample N1, subject with kidney cancer): 0.027 and 0.019 and 0.023
- Results of absorbance analysis (rate of hydrolysis of the substrate) ([5]; urine sample N2, subject with kidney cancer): 0.021 and 0.014 and 0.019
- Results of absorbance analysis (rate of hydrolysis of the substrate) ([5]; urine sample N4, subject with kidney cancer): 0.032 and 0.029 and 0.03
- Results of absorbance analysis (rate of hydrolysis of the substrate) ([5]; urine sample N5, subject with kidney cancer): 0.034 and 0.032 and 0.029
- Results of absorbance analysis (rate of hydrolysis of the substrate) ([5]; urine sample N6, subject with kidney cancer): 0.0033 and 0.0027 and 0.003
- Results of absorbance analysis (rate of hydrolysis of the substrate) ([5]; urine sample N7, subject with kidney cancer): 0.02 and 0.021 and 0.018
- Results of absorbance analysis (rate of hydrolysis of the substrate) ([5]; urine sample N9, subject with kidney cancer): 0.031 and 0.03 and 0.035
- Results of absorbance analysis (rate of hydrolysis of the substrate) ([5]; urine sample N10, subject with kidney cancer): 0.0026 and 0.0037 and 0.0031
- Results of absorbance analysis (rate of hydrolysis of the substrate) ([5]; urine sample N11, subject with kidney cancer): 0.012 and 0.01 and 0.015
- Results of absorbance analysis (rate of hydrolysis of the substrate) ([5]; urine sample N12, subject with kidney cancer): 0.0098 and 0.0111 and 0.012
- Results of absorbance analysis (rate of hydrolysis of the substrate) ([5]; urine sample N13, subject with kidney cancer): 0.004 and 0.0051 and 0.0045
- Results of absorbance analysis (rate of hydrolysis of the substrate) ([5]; urine sample N14, subject with kidney cancer): 0.0036 and 0.0033 and 0.0032
- Results of absorbance analysis (rate of hydrolysis of the substrate) ([5]; urine sample N15, subject with kidney cancer): 0.0043 and 0.0037 and 0.004
- Results of absorbance analysis (rate of hydrolysis of the substrate) ([5]; urine sample N16, subject with kidney cancer): 0.0039 and 0.0037 and 0.0035
- Results of absorbance analysis (rate of hydrolysis of the substrate) ([5]; urine sample N17, subject with kidney cancer): 0.013 and 0.0135 and 0.0136
- Results of absorbance analysis (rate of hydrolysis of the substrate) ([5]; urine sample N18, subject with kidney cancer): 0.004 and 0.0032 and 0.0038
- Results of absorbance analysis (rate of hydrolysis of the substrate) ([5]; urine sample N19, subject with kidney cancer): 0.0038 and 0.004 and 0.0037
- Results of absorbance analysis (rate of hydrolysis of the substrate) ([5]; urine sample N20, subject with kidney cancer): 0.031 and 0.026
Substance: ABZ-Leu-Pro-Gly-Thr-ANB-NH2 ([2Abz]LPGT-{Benzoyl(5-NH,2-NO2)-NH2}) [chromogenic/fluorogenic peptide; ABZ is 2-aminobenzoic acid, ANB-NH2 is amide of 5-amino-2-nitrobenzoic acid]
- Increase in absorbance / hydrolysis in urine samples from healthy persons ([3]; samples 21 to 40, without a cancer diagnosis): does not lead to an increase in absorbance
- Cleavage products by RP HPLC analysis [4]: cleaves into the peptide fragment ABZ-Leu-Pro-Gly-Thr-OH and the chromophore group of the compound (ANB-NH2)
